According to patent publication US20060183803A1, “L-aspartic acid for the treatment of assorted health problems” (Instituto del Metabolismo Celular, S.L., priority 2005, published 2006):

Assays:
[1] = Sexual potency problems of male patients under treatment; type: in vivo, human; conditions: after 2-3 months of treatment
Excerpt: A number of the male patients in our trails initially complained of erectile disfunction and other sexual performance problems. […] These improvements were most significant for those patients who had reported problems of erectile disfunction; with these patients generally reporting improvements in all aspects of their sexual activities, including their sexual appetency and ability to ejaculate.

[2] = Patients with high blood uric acid levels under treatment; type: in vivo, human; conditions: sixty patients
Protocol: Sixty patients participating in this program had high blood uric acid levels.
Our treatment achieved a significant decrease in the uric acid levels of these patients: from initial levels of between 7.1 and 9.4 mg/100 mL to, after usually 2-4 months treatment, normal values.

[3] = Digestion problems of patients under treatment; type: in vivo, human; conditions: more than three hundred patients, after two or three weeks
[4] = Migraines, headaches and menstrual pains reported by patients under treatment; type: in vivo, human; conditions: improvement in first or second month, in some cases several months
[5] = Clinical trial in non-diabetic patients with blood cholesterol excess; type: in vivo, human; conditions: more than 200 non-diabetic patients, four daily takings of 1-3 grams
Excerpt: These clinical trials included a group of more than 200 non-diabetic patients with blood cholesterol excesses. The basic treatment (i.e., four daily […] of 1-3 grams of L-aspartic acid and the elimination of starches from one's diet) for these patients was the same as that described above, plus: (i) complete elimination of carbohydrates from the diet, (ii) inclusion of unsaturated and polyunsaturated fat in all meals, and (iii) inclusion in some meals of cholesterol.

[6] = Tobacco, caffeine and other drug addictions in patients under treatment; type: in vivo, human
Excerpt: For the treatment of tobacco addiction, we found it advisable to increase the frequency of the intake of L-aspartic acid to 10-12 small doses per day in order to control the anxiety to smoke.
In our clinical trials, some of our patients were addicted to some soft drugs like coffee (caffeine), tobacco (nicotine), Prozac (fluoxetin), Trankimazin (alprazolam), Tranxilium (di-potasium chloride-acetate). In general, they were able to reduce their consumption of these materials while undergoing our recommended treatments. […] In tobacco release addiction programs, some small supplementary doses (0.5-1.0 g. every 30-45 minutes) may be necessary during the day to stop the patient's anxiety.
Smoking patients who expressed a desire to stop were advised to prepare a small bottle of water (or even fruit juice) with some small spoonfuls of L-aspartic acid, and to drink some small swigs of this throughout the day to control their anxiety levels.

[7] = Clinical trial in patients suffering from hypertension; type: in vivo, human
Excerpt: Clinical trials for 250 patients suffering from hypertension (156 men and 94 women, with ages between 19 and 70 years) are reported below.
A summary of our clinical results are shown in Table 3 for average daily L-aspartic acid consumptions of 12 g/day (four daily 3 g doses).

[8] = Clinical trial of L-aspartic acid plus starch-free diet in obesity and overweight
[9] = Ketosis in patients under treatment
[10] = Clinical trial in type-1 and type-2 diabetes patients; type: in vivo, human
Excerpt: There is, in principle, no special protocol for patients suffering from diabetes (both types), which is different from the general one described above. Type-2 diabetes is usually associated with overweight and/or excess of fat in the body, so its protocol should not differ substantially from the general one presented above. With regard to type-I diabetes, since this treatment allows cells to consume less glucose, as it enhances their capacity to consume fat, it can reduce one's insulin dependence.
Diabetic patients were told to take their values of blood glucose regularly (three or four times a day during the first months) until they achieved good blood glucose values. During the treatment, when it was seen that blood glucose levels were decreasing, the patients were instructed to reduce the doses of drugs or insulin, until removing them completely, to avoid hypoglycemia.
Our clinical trails involved a group of 200 patients, […]. The patients were divided into four groups: (i) Type-2 diabetes patients who had been recently diagnosed and were not yet taking any oral drugs or insulin treatments, (ii) Type-2 diabetes patients who had been taking oral drugs (usually sulphonylurea derivatives) for up to several years, (iii) Type-2 diabetes patients who were suffering for many years, and had started their treatment with oral drugs and, after several years, progressed to insulin injections, which were eventually being supplemented with oral drugs, and (iv) Type-1 diabetes patients, all of them under insulin treatment. Most of these patients were also suffering from other related health problems (e.g., overweight or obesity, hypertension, sexual potency problems).
The basic treatment guidelines for these diabetes patients were essentially the same as that which was indicated above for our obesity and overweight patients (i.e., four daily takings of 1-3 grams of L-aspartic acid and the elimination of starches from one's diet).

N[C@@H](CC(=O)O)C(=O)O [L-aspartic acid]
erectile disfunction and other sexual performance problems [1]: significant diminishments of their problems | blood uric acid level after treatment ([2]; initial levels between 7.1 and 9.4 mg/100 mL): normal values | treatment time to normal uric acid values ([2]; usually): 2-4 months | digestion problems [3]: almost total resolution of their digestion problems | number of patients reporting migraines, headaches and menstrual pains [4]: significant reduction | blood cholesterol, tryglycerides and total lipid levels [5]: clear improvement | daily number of cigarettes smoked ([6]; most tobacco-addicted patients interested in ceasing, after 2-4 weeks): able to reduce their daily numbers of cigarettes smoked | caffeine addiction ([6]; patients consuming 8-12 daily coffees or caffeine soft drinks): drastically eliminate this dependence in only a few weeks | smoking cessation ([6]; patients wishing to stop, small swigs through the day, after several weeks): all of these patients had ceased smoking | reduction in % body fat ([7]; 250 hypertension patients, 12 g/day): approximately 10% | mean time to attainment of recommended normal blood pressures ([7]; 250 patients, 12 g/day (four daily 3 g doses)): 2.8 months | safety of prolonged treatment (blood chemical analysis) ([8]; duration as long as one wants): without danger of intoxication | fat burnt per day ([8]; estimated from water unloaded, ratio 14/18): 200 to 600 g | biochemical and hematological parameters in periodic blood analysis ([8]; human, in vivo): consistently showed improvements | side effect from reduced drinking ([8]; in some cases): hard stools and difficulty with bowel movements | weight loss outcome ([8]; more than 1,500 patients, ages 18 to 83): Successful weight losses in all cases | usual weight loss rate ([8]; obesity patients, also printed as 11-13 pounds per month): 5-6 kg per month | carbohydrate abstinence syndrome (weakness, feeling sick) ([8]; on elimination of carbohydrate-rich foods): only during their first two weeks of participation | fat as percentage of body mass after treatment ([8]; person (FIG. 5), 41.1% at start, after 290 days): 23% | body fat mass after treatment ([8]; person (FIG. 5), 53.5 kg of fat at start, after 290 days): 19.1 kg | body weight after treatment ([8]; person (FIG. 5), 130 kg at start, after 290 days of treatment): 83 kg | weight reduction ([8]; person (FIG. 5), after 290 days of treatment): 47 kg | change in percentage of body fat ([8]; versus conventional hypocaloric diets): significant reductions in our patients' percentages of body fat | anxiety, hunger pangs or energy loss during treatment ([8]; without sedative or stimulant drug): no significant anxiety, hunger pangs or energy loss | occurrence of ketosis under treatment ([9]; all patients under treatment): None of the patients under our treatment have suffered any kind of ketosis | blood ketone bodies in patients with signs of ketosis before treatment ([9]; relatively short time after beginning treatments): achieved normal blood concentration of ketone bodies | reduction of oral drugs and/or insulin injections ([10]; all diabetes patients): able to reduce to some degree their oral drugs and/or insulin injections | glycosylated haemoglobin, cholesterol, tryglycerides and total lipids in blood analysis ([10]; diabetes patients): drastically reduced | reduction in glycosylated haemoglobin levels ([10]; diabetes patients, over the duration of treatment): ≥ 20% | time to change from insulin injections to oral diabetes drugs ([10]; most type-2 patients receiving insulin injections): 1-2 months | reduction in glycosylated haemoglobin level, single patient ([10]; patient Example 32 in Table 2): 38.05% | onset of improvement in glycemia levels ([10]; two type-2 patients (FIGS. 6 and 7)): clear from the first week of treatment | time to good control of glycemia and discontinuing diabetes medications ([10]; two type-2 patients (FIGS. 6 and 7), diabetes for over 10 years): 1-2 months | reduction in insulin dosages ([10]; type-1 diabetes patients, over periods of 3-12 months): 20-30%
